Reference: paper PMC9516332 (Frontiers in Oncology, 2022)
Where two headings read alike, the source gives them in different places.

Columns and labels:
AP-1060 (ETV6-NTRK3) = experiment: Cell viability assay; conditions: read-out: IC50 in cell proliferation assay
134 cancer cell lines = experiment: Cell viability assay (ATPlite, 72 hours), IC50 on cancer cell line panel

IC50 (134 cancer cell lines; HEC-6, read-out: IC50 in cell proliferation assay, HEC-6 cell line (EGFR p.A289V)): > 31600 nM | IC50 (134 cancer cell lines; Homo sapiens, 769-P, read-out: IC50 in cell proliferation assay, cell line 769-P): 665 nM | IC50 (134 cancer cell lines; Homo sapiens, 786-0, read-out: IC50 in cell proliferation assay, cell line 786-O): > 31600 nM | IC50 (134 cancer cell lines; Homo sapiens, A 172, read-out: IC50 in cell proliferation assay, cell line A-172): 25300 nM | IC50 (134 cancer cell lines; Homo sapiens, A204, read-out: IC50 in cell proliferation assay, cell line A-204): > 31600 nM | IC50 (134 cancer cell lines; Homo sapiens, A498, read-out: IC50 in cell proliferation assay, cell line A-498): 137 nM | IC50 (134 cancer cell lines; Homo sapiens, A549, read-out: IC50 in cell proliferation assay, cell line A-549): 132 nM | IC50 (134 cancer cell lines; Homo sapiens, A704, read-out: IC50 in cell proliferation assay, cell line A-704): > 31600 nM | IC50 (134 cancer cell lines; Homo sapiens, A-375, read-out: IC50 in cell proliferation assay, cell line A-375 (BRAF p.V600E)): 145 nM | IC50 (134 cancer cell lines; Homo sapiens, A-427, read-out: IC50 in cell proliferation assay, cell line A-427): 1340 nM | IC50 (134 cancer cell lines; Homo sapiens, ACHN, read-out: IC50 in cell proliferation assay, cell line ACHN): 14400 nM | IC50 (134 cancer cell lines; Homo sapiens, AN3-CA, read-out: IC50 in cell proliferation assay, cell line AN3-CA (FGFR2 p.N549K)): 2330 nM | IC50 (134 cancer cell lines; Homo sapiens, ASPC1, read-out: IC50 in cell proliferation assay, cell line AsPC-1): 210 nM | IC50 (134 cancer cell lines; Homo sapiens, AU565, read-out: IC50 in cell proliferation assay, cell line AU565 (ERBB2 amplification)): > 31600 nM | IC50 (134 cancer cell lines; Homo sapiens, BT-20, read-out: IC50 in cell proliferation assay, cell line BT-20): 9260 nM | IC50 (134 cancer cell lines; Homo sapiens, BT-474, read-out: IC50 in cell proliferation assay, cell line BT-474 (ERBB2 amplification)): > 31600 nM | IC50 (134 cancer cell lines; Homo sapiens, BT-549, read-out: IC50 in cell proliferation assay, cell line BT-549): > 31600 nM | IC50 (134 cancer cell lines; Homo sapiens, BXPC-3, read-out: IC50 in cell proliferation assay, cell line BxPC-3): 472 nM | IC50 (134 cancer cell lines; Homo sapiens, C-33-A, read-out: IC50 in cell proliferation assay, cell line C-33 A): 2.72 nM | IC50 (134 cancer cell lines; Homo sapiens, CAL-27, read-out: IC50 in cell proliferation assay, cell line CAL-27): 61 nM | IC50 (134 cancer cell lines; Homo sapiens, CCF-STTG1, read-out: IC50 in cell proliferation assay, cell line CCF-STTG1): > 31600 nM | IC50 (134 cancer cell lines; Homo sapiens, CCRF-CEM, read-out: IC50 in cell proliferation assay, cell line CCRF-CEM): > 31600 nM | IC50 (134 cancer cell lines; Homo sapiens, COLO 205, read-out: IC50 in cell proliferation assay, cell line COLO 205 (BRAF p.V600E)): 38 nM | IC50 (134 cancer cell lines; Homo sapiens, COLO-829, read-out: IC50 in cell proliferation assay, cell line COLO 829 (BRAF p.V600E)): 117 nM | IC50 (134 cancer cell lines; Homo sapiens, DLD-1, read-out: IC50 in cell proliferation assay, cell line DLD-1): 21400 nM | IC50 (134 cancer cell lines; Homo sapiens, DU-4475, read-out: IC50 in cell proliferation assay, cell line DU4475 (BRAF p.V600E)): 88 nM | IC50 (134 cancer cell lines; Homo sapiens, Daoy, read-out: IC50 in cell proliferation assay, cell line Daoy): > 31600 nM | IC50 (134 cancer cell lines; Homo sapiens, DoTc2-4510, read-out: IC50 in cell proliferation assay, cell line DoTc2 4510): 32 nM | IC50 (134 cancer cell lines; Homo sapiens, EOL1, read-out: IC50 in cell proliferation assay, cell line EoL-1 (FIP1L1-PDGFRA)): 92 nM | IC50 (134 cancer cell lines; Homo sapiens, FaDu, read-out: IC50 in cell proliferation assay, cell line FaDu): 73 nM | IC50 (134 cancer cell lines; Homo sapiens, G-361, read-out: IC50 in cell proliferation assay, cell line G-361 (BRAF p.V600E)): 225 nM | IC50 (134 cancer cell lines; Homo sapiens, HCC827, read-out: IC50 in cell proliferation assay, cell line HCC827 (EGFR exon19del)): 9710 nM | IC50 (134 cancer cell lines; Homo sapiens, HCC4006, read-out: IC50 in cell proliferation assay, cell line HCC4006 (EGFR exon19del)): 26800 nM | IC50 (134 cancer cell lines; Homo sapiens, HCT-15, read-out: IC50 in cell proliferation assay, cell line HCT 15): > 31600 nM | IC50 (134 cancer cell lines; Homo sapiens, HCT-116, read-out: IC50 in cell proliferation assay, cell line HCT 116): 2.26 nM | IC50 (134 cancer cell lines; Homo sapiens, HEC-1, read-out: IC50 in cell proliferation assay, HEC-1 cell line): > 31600 nM | IC50 (134 cancer cell lines; Homo sapiens, HEC-1B, read-out: IC50 in cell proliferation assay, HEC-1-B cell line (EGFR p.A864V)): 27 nM | IC50 (134 cancer cell lines; Homo sapiens, HL-60, read-out: IC50 in cell proliferation assay, HL-60 cell line): 13 nM | IC50 (134 cancer cell lines; Homo sapiens, HT, read-out: IC50 in cell proliferation assay, HT cell line): 14800 nM | IC50 (134 cancer cell lines; Homo sapiens, HT-1080, read-out: IC50 in cell proliferation assay, HT-1080 cell line): 132 nM | IC50 (134 cancer cell lines; Homo sapiens, Hs746T, read-out: IC50 in cell proliferation assay, Hs 746.T cell line (MET exon14skip + amplification)): 19400 nM | IC50 (134 cancer cell lines; Homo sapiens, Hs-578T, read-out: IC50 in cell proliferation assay, Hs 578T cell line): 78 nM | IC50 (134 cancer cell lines; Homo sapiens, HuTu80, read-out: IC50 in cell proliferation assay, HuTu 80 cell line): 413 nM | IC50 (134 cancer cell lines; Homo sapiens, J82, read-out: IC50 in cell proliferation assay, J82 cell line): 265 nM | IC50 (134 cancer cell lines; Homo sapiens, Jurkat E6.1, read-out: IC50 in cell proliferation assay, Jurkat E6.1 cell line): > 31600 nM | IC50 (134 cancer cell lines; Homo sapiens, K562, read-out: IC50 in cell proliferation assay, K-562 cell line): 241 nM | IC50 (134 cancer cell lines; Homo sapiens, KATO III, read-out: IC50 in cell proliferation assay, KATO III cell line (FGFR2 amplification)): 16500 nM | IC50 (134 cancer cell lines; Homo sapiens, KG-1, read-out: IC50 in cell proliferation assay, KG-1 cell line (FGFR1OP2-FGFR1)): 10 nM | IC50 (134 cancer cell lines; Homo sapiens, KLE, read-out: IC50 in cell proliferation assay, KLE cell line): > 31600 nM | IC50 (134 cancer cell lines; Homo sapiens, KMS-11, read-out: IC50 in cell proliferation assay, KMS-11 cell line (FGFR3 p.Y373C)): > 31600 nM | IC50 (134 cancer cell lines; Homo sapiens, KU812, read-out: IC50 in cell proliferation assay, Ku812 cell line): 73 nM | IC50 (134 cancer cell lines; Homo sapiens, Kasumi 1, read-out: IC50 in cell proliferation assay, Kasumi-1 cell line (KIT p.N822K)): 345 nM | IC50 (134 cancer cell lines; Homo sapiens, LC-2-ad, read-out: IC50 in cell proliferation assay, LC-2/ad cell line (CCDC6-RET)): 31000 nM | IC50 (134 cancer cell lines; Homo sapiens, LNCaP-Clone-FGC, read-out: IC50 in cell proliferation assay, LNCaP clone FGC cell line): > 31600 nM | IC50 (134 cancer cell lines; Homo sapiens, LS174T, read-out: IC50 in cell proliferation assay, LS174T cell line): 177 nM | IC50 (134 cancer cell lines; Homo sapiens, LS-411N, read-out: IC50 in cell proliferation assay, LS411N cell line (BRAF p.V600E)): 75 nM | IC50 (134 cancer cell lines; Homo sapiens, LoVo, read-out: IC50 in cell proliferation assay, LoVo cell line): 34 nM | IC50 (134 cancer cell lines; Homo sapiens, MCF7, read-out: IC50 in cell proliferation assay, MCF-7 cell line): > 31600 nM | IC50 (134 cancer cell lines; Homo sapiens, MDA-MB-231, read-out: IC50 in cell proliferation assay, MDA-MB-231 cell line): 1000 nM | IC50 (134 cancer cell lines; Homo sapiens, MDA-MB-453, read-out: IC50 in cell proliferation assay, MDA-MB-453 cell line): 9170 nM | IC50 (134 cancer cell lines; Homo sapiens, MDA-MB-468, read-out: IC50 in cell proliferation assay, MDA-MB-468 cell line): > 31600 nM | IC50 (134 cancer cell lines; Homo sapiens, MG-63, read-out: IC50 in cell proliferation assay, MG-63 cell line): 6090 nM | IC50 (134 cancer cell lines; Homo sapiens, MIA PaCa-2, read-out: IC50 in cell proliferation assay, MIA PaCa-2 cell line): 221 nM | IC50 (134 cancer cell lines; Homo sapiens, MKN-45, read-out: IC50 in cell proliferation assay, MKN45 cell line (MET amplification)): 2680 nM | IC50 (134 cancer cell lines; Homo sapiens, MOLM-13, read-out: IC50 in cell proliferation assay, MOLM-13 cell line (FLT3 ITD)): 822 nM | IC50 (134 cancer cell lines; Homo sapiens, MOLT-4, read-out: IC50 in cell proliferation assay, MOLT-4 cell line): > 31600 nM | IC50 (134 cancer cell lines; Homo sapiens, MV4-11, read-out: IC50 in cell proliferation assay, MV4-11 cell line (FLT3 ITD)): 178 nM | IC50 (134 cancer cell lines; Homo sapiens, MeWo, read-out: IC50 in cell proliferation assay, MeWo cell line): 5400 nM
Structure (SMILES): Cn1cnc2c(F)c(Nc3ccc(Br)cc3Cl)c(C(=O)NOCCO)cc21 [selumetinib]
IC50 (AP-1060 (ETV6-NTRK3)): > 31600 nM
